This note sets out measurements from PubChem BioAssay (NCI).

Test systems include SK-MEL-5 melanoma; EKVX NSCLC; MALME-3M melanoma; KM12 colon; IGROV1 ovarian; NCI-H23 lung; K-562 leukemia; SF-539 CNS; TK-10 renal; DU-145 prostate.
Assay in all cases: DTP human tumour cell line panel, 48 h

Where “and” joins values, the source holds several entries; their conditions need not be identical. Equal values may be shown once.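 Compound exposure: 48 hours, 5 concentrations, 96-well plates. GI50: concentration for 50% inhibition of growth. TGI is the concentration that stops growth completely.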 A value given as a limit tells only on which side of the number the result lay.

`O=C1C=CC(O)C2C1CC13SSC4(CC5C(=O)C=CC(O)C5N4C1=O)C(=O)N23` (stereo unspecified): the total growth inhibition concentration (TGI) in the test on SK-MEL-5 melanoma was determined as 1.06 µM; in the test on EKVX NSCLC, 2.33 µM; in the test on MALME-3M melanoma, 1.22 µM; with KM12 colon, 0.342 µM; in the test on IGROV1 ovarian, 3.43 µM; in the test with NCI-H23 lung it was 0.393 µM. For the same compound, the TGI with K-562 leukemia was more than 100 µM; in the test on SF-539 CNS, 0.505 µM; with TK-10 renal it was 1.81 µM; in the test on DU-145 prostate, 1.07 µM.
Regarding `CO[C@H]1CC(c2ccc[nH]2)=N[C@]12O[C@@H](C)C[C@@H]1CCCCCCCc3ccc([nH]3)[C@H]12`, the GI50 was 0.527 µM in the test with SK-MEL-5 melanoma; 0.975 µM with EKVX NSCLC; 0.886 µM in the test with MALME-3M melanoma; 0.933 µM with KM12 colon; 1.38 µM in the test with IGROV1 ovarian; 1.21 µM in the test with NCI-H23 lung. The GI50 in the test with K-562 leukemia is 0.821 µM; with SF-539 CNS, 1.01 µM; in the test with TK-10 renal it was 2.33 µM; with DU-145 prostate, 1.49 µM. Further, the TGI in the test with SK-MEL-5 melanoma amounted to 1.17 µM; with EKVX NSCLC it was 7.3 µM; in the test on MALME-3M melanoma, 3.62 µM; with KM12 colon, 6.15 µM; in the test on IGROV1 ovarian it was 10.8 µM; in the test with NCI-H23 lung it was 8.03 µM. The TGI in the test with K-562 leukemia is more than 24.2 µM; in the test with SF-539 CNS, 9.26 µM; with TK-10 renal it was more than 29.6 µM; in the test with DU-145 prostate, more than 23.1 µM.
On to `CC(C)CCN[C@@H]1CCc2cc(O)c(N3CC(=O)NS3(=O)=O)c(F)c2C1`, for which the GI50 in the test with SK-MEL-5 melanoma, in the test with EKVX NSCLC, with MALME-3M melanoma, with KM12 colon, with IGROV1 ovarian and in the test on NCI-H23 lung was more than 100 µM throughout. Besides, the GI50 was more than 100 µM in the test on K-562 leukemia, 20.3 µM in the test with SF-539 CNS, more than 100 µM with TK-10 renal and more than 100 µM in the test on DU-145 prostate. In addition, the concentration for total growth inhibition (TGI) with SK-MEL-5 melanoma, in the test with EKVX NSCLC, in the test with MALME-3M melanoma, in the test with KM12 colon, in the test with IGROV1 ovarian and in the test with NCI-H23 lung was more than 100 µM throughout. Besides, the TGI with K-562 leukemia, with SF-539 CNS, in the test with TK-10 renal and in the test with DU-145 prostate was more than 100 µM each time.
As to `COC1=C2CC(C)CC(OC)C(O)C(C)/C=C(\C)C(OC(N)=O)C(OC)/C=C\C=C(/C)C(=O)NC(=C(/C=N/N3CCCCC3)C1=O)C2=O` (stereo unspecified), the total growth inhibition concentration (TGI) with SK-MEL-5 melanoma amounted to 29.9 µM; with EKVX NSCLC, 14.7 µM; with MALME-3M melanoma it was 28.7 µM; with KM12 colon it was 25.1 µM; in the test on IGROV1 ovarian, 27 µM; in the test on NCI-H23 lung, 35.3 µM. Also, the concentration for total growth inhibition (TGI) in the test on K-562 leukemia is 21.6 µM; in the test with SF-539 CNS, 20.8 µM; in the test with TK-10 renal, 72.1 µM; in the test with DU-145 prostate, 32.9 µM.
In the case of `Clc1nc(Cl)c2ncn(Cc3ccc(Cn4cnc5c(Cl)nc(Cl)nc54)cc3)c2n1`, the GI50 in the test with SK-MEL-5 melanoma was 2.13 µM; in the test on MALME-3M melanoma, 5.62 µM; in the test on KM12 colon it was 12.5 µM; in the test on IGROV1 ovarian, 6.08 µM; with NCI-H23 lung, 2.02 µM; in the test with K-562 leukemia, 0.661 µM. Besides, the results for the GI50 with SF-539 CNS and with TK-10 renal were 5.04 µM and 15.6 µM, respectively. For the same compound, the TGI was 20.8 µM with SK-MEL-5 melanoma; 25 µM in the test with EKVX NSCLC; 29.3 µM with MALME-3M melanoma; 31.2 µM with KM12 colon; 20.6 µM in the test on IGROV1 ovarian; 22.8 µM with NCI-H23 lung. For the same compound, the TGI with K-562 leukemia was determined as 14 µM; with SF-539 CNS, 20.7 µM; in the test with TK-10 renal, 35.2 µM; in the test on DU-145 prostate, 10 µM.
With `CC(=O)Oc1ccc(C(c2ccc(OC(C)=O)cc2)c2ccccn2)cc1`, the GI50 in the test with SK-MEL-5 melanoma was 31.8 µM; in the test with MALME-3M melanoma, 29.4 µM; in the test on KM12 colon it was 39.2 µM; in the test on IGROV1 ovarian, 19.9 µM; in the test with NCI-H23 lung, 5.08 µM; in the test on K-562 leukemia, 39.3 µM. In addition, the values for the GI50 in the test with TK-10 renal and in the test on DU-145 prostate were more than 59.7 µM and 98.2 µM, respectively. Further, the concentration for total growth inhibition (TGI) in the test with SK-MEL-5 melanoma is more than 100 µM; in the test with EKVX NSCLC, > 100 µM and 57.1 µM; in the test on MALME-3M melanoma, more than 100 µM; with KM12 colon, more than 100 µM; with IGROV1 ovarian, more than 100 µM; with NCI-H23 lung it was more than 100 µM. The TGI in the test on K-562 leukemia, with SF-539 CNS, in the test with TK-10 renal and in the test on DU-145 prostate was more than 100 µM each time.
With `OCCN1CCN(CC/C=C2\c3ccccc3Sc3ccc(Cl)cc32)CC1`, the GI50 in the test with SK-MEL-5 melanoma was 1.61 µM and 1.67 µM; with EKVX NSCLC, 5.78 µM and 6.11 µM; in the test with MALME-3M melanoma, 1.94 µM; in the test with KM12 colon, 2.73 µM and 2.81 µM; in the test with IGROV1 ovarian it was 3.21 µM and 3.51 µM; with NCI-H23 lung, 10.7 µM and 7.72 µM. The GI50 with K-562 leukemia was 1.52 µM and 1.77 µM; in the test on SF-539 CNS, 1.61 µM and 2.05 µM; in the test on TK-10 renal, 4.59 µM and 2.07 µM; in the test on DU-145 prostate it was 5.18 µM and 7.27 µM. Besides, the TGI in the test with SK-MEL-5 melanoma is 3.01 µM and 3.04 µM; in the test with EKVX NSCLC it was 23.7 µM and 21 µM; with MALME-3M melanoma, 3.8 µM; with KM12 colon it was 6.02 µM and 7.34 µM; in the test with IGROV1 ovarian it was 12.7 µM and 11 µM; with NCI-H23 lung, 28.2 µM and 21.4 µM. Besides, the TGI is 2.94 µM and 3.68 µM in the test on K-562 leukemia; 3.37 µM and 4.37 µM in the test on SF-539 CNS; 19.4 µM and 5.62 µM with TK-10 renal; 17.4 µM and 19.7 µM in the test with DU-145 prostate.

In general, TGI refers to the concentration giving total growth inhibition. A word on the GI50: it is the concentration giving 50% growth inhibition.
